Reference: PubChem BioAssay (NCI)
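Grown in 96-well plates, cells were treated for 48 hours with each compound at five concentrations. Insufficient inhibition: endpoint recorded as highest concentration tested. At the TGI there is no net growth.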

Experiments:
Assay in all cases: growth of human tumour cells (NCI), 48 h
RPMI-8226 leukemia = tested on: RPMI-8226 leukemia
SF-539 CNS = tested on: SF-539 CNS
BT-549 breast = tested on: BT-549 breast
HCT-15 colon = tested on: HCT-15 colon
MDA-MB-435 = tested on: MDA-MB-435
NCI-H460 lung = tested on: NCI-H460 lung
UACC-62 melanoma = tested on: UACC-62 melanoma
RXF 393 renal = tested on: RXF 393 renal
OVCAR-3 ovarian = tested on: OVCAR-3 ovarian
OVCAR-8 ovarian = tested on: OVCAR-8 ovarian
SK-MEL-2 melanoma = tested on: SK-MEL-2 melanoma
HCC-2998 colon = tested on: HCC-2998 colon
PC-3 prostate = tested on: PC-3 prostate
HS 578T breast = tested on: HS 578T breast
NCI/ADR-RES ovarian = tested on: NCI/ADR-RES ovarian
TK-10 renal = tested on: TK-10 renal
SNB-75 CNS = tested on: SNB-75 CNS
OVCAR-5 ovarian = tested on: OVCAR-5 ovarian
K-562 leukemia = tested on: K-562 leukemia
HCT-116 colon = tested on: HCT-116 colon
EKVX NSCLC = tested on: EKVX NSCLC
CAKI-1 renal = tested on: CAKI-1 renal
SN12C renal = tested on: SN12C renal
MDA-N = tested on: MDA-N
MCF7 breast = tested on: MCF7 breast
T-47D breast = tested on: T-47D breast
SK-MEL-28 melanoma = tested on: SK-MEL-28 melanoma
HT29 colon = tested on: HT29 colon
NCI-H23 lung = tested on: NCI-H23 lung
HOP-62 NSCLC = tested on: HOP-62 NSCLC
SK-MEL-5 melanoma = tested on: SK-MEL-5 melanoma
HOP-92 NSCLC = tested on: HOP-92 NSCLC
A549 NSCLC = tested on: A549 NSCLC
ACHN renal = tested on: ACHN renal
786-0 renal = tested on: 786-0 renal
A498 renal = tested on: A498 renal
MALME-3M melanoma = tested on: MALME-3M melanoma
SW-620 colon = tested on: SW-620 colon
NCI-H226 lung = tested on: NCI-H226 lung
SNB-19 CNS = tested on: SNB-19 CNS
UACC-257 melanoma = tested on: UACC-257 melanoma
IGROV1 ovarian = tested on: IGROV1 ovarian
UO-31 renal = tested on: UO-31 renal
SF-268 CNS = tested on: SF-268 CNS
M14 melanoma = tested on: M14 melanoma
SR leukemia = tested on: SR leukemia
LOX IMVI melanoma = tested on: LOX IMVI melanoma
MDA-MB-231 breast = tested on: MDA-MB-231 breast
OVCAR-4 ovarian = tested on: OVCAR-4 ovarian
SK-OV-3 ovarian = tested on: SK-OV-3 ovarian
U251 CNS = tested on: U251 CNS
NCI-H522 lung = tested on: NCI-H522 lung
SF-295 CNS = tested on: SF-295 CNS
DU-145 prostate = tested on: DU-145 prostate
COLO 205 colon = tested on: COLO 205 colon
KM12 colon = tested on: KM12 colon
MOLT-4 leukemia = tested on: MOLT-4 leukemia
CCRF-CEM leukemia = tested on: CCRF-CEM leukemia
HL-60(TB) leukemia = tested on: HL-60(TB) leukemia

Measured: TGI

NS(=O)(=O)c1ccc(N=Nc2nc3[nH]c(=O)[nH]c(=O)c3[nH]2)cc1
not listed: MOLT-4 leukemia | CCRF-CEM leukemia | HL-60(TB) leukemia
> 100 µM: all other assays above

Cc1c([N+](=O)[O-])ccc2c(NCCCN(C)C)ccnc12
82.7 µM: A498 renal
52.7 µM: IGROV1 ovarian
60.4 µM: SF-295 CNS
74.1 µM: HS 578T breast
31.2 µM: SF-539 CNS
41 µM: OVCAR-4 ovarian
72.5 µM: NCI-H226 lung
30.9 µM: LOX IMVI melanoma
31.9 µM: NCI-H522 lung
76.5 µM: T-47D breast
33.2 µM: NCI-H460 lung
34.9 µM: MDA-MB-435
41.6 µM: PC-3 prostate
50.8 µM: OVCAR-3 ovarian
30.5 µM: UO-31 renal
24.7 µM: COLO 205 colon
80.6 µM: TK-10 renal
56.6 µM: MDA-MB-231 breast
89.3 µM: 786-0 renal
31.7 µM: MALME-3M melanoma
55.6 µM: SW-620 colon
37.2 µM: MCF7 breast
34.1 µM: HT29 colon
31.4 µM: UACC-257 melanoma
34.6 µM: NCI-H23 lung
32.7 µM: HCT-15 colon
39.4 µM: UACC-62 melanoma
36.2 µM: BT-549 breast
35.3 µM: HCT-116 colon
60.8 µM: RXF 393 renal
28.4 µM: MDA-N
92.5 µM: OVCAR-5 ovarian
61.5 µM: HOP-92 NSCLC
31.8 µM: SK-MEL-2 melanoma
29.9 µM: M14 melanoma
32.1 µM: KM12 colon
54.5 µM: SK-MEL-28 melanoma
40.5 µM: A549 NSCLC
29.6 µM: SK-MEL-5 melanoma
not listed: HCC-2998 colon | EKVX NSCLC | SNB-19 CNS
> 100 µM: all other assays above

O=C(O)CCC(=O)c1ccc[nH]1
not listed: HCC-2998 colon | SK-MEL-28 melanoma | SW-620 colon | CCRF-CEM leukemia | HL-60(TB) leukemia
> 100 µM: all other assays above
